A short description of series [1]: Plasma protein binding by equilibrium dialysis, human plasma. The class given is in vitro ADME. As to conditions: plasma (10% in buffer), Caucasian, read-out: Fu (Mari). Here is the method: (§1) The determination of the plasma protein binding of compounds was performed by means of an equilibrium dialysis in a 96-well HT plate. Solutions of test compound (0.3 μM and 3 μM) were prepared in buffer (50 mM phosphate buffer) and 10% plasma. A 96 well HT dialysis plate (Teflon) was assembled so that each well was divided in two compartments by a semi-permeable cellulose membrane (regenerated Cellulose, MWCO 12-14K). The phosphate buffer solution (150 μL) was added to one side of the membrane and the plasma solution to the other side (150 μL). The compounds were added to the plasma solution side and were incubated at 37 degree. The unbound fraction of the compound could pass through the membrane and equilibrium between the two sides could be reached (6-8 h, 37° C.). Both solutions were analyzed for each compound (plasma-free and plasma-containing) by LC-MS. Both solutions for each compound were diluted with buffer or plasma to reach the same matrix (10% plasma) for analysis and were precipitated by the addition of methanol. The fraction unbound (Fu) was calculated as the quotient of the equilibrium concentrations of the compound in plasma-free and plasma-containing solution.

Series [2] is described as follows: Plasma protein binding by equilibrium dialysis, monkey plasma. The class given is in vitro ADME. To be noted: plasma (10% in buffer), Cynomolgus, read-out: Fu (Mari). Here is the method: as §1
A further series relates to Human liver microsomes. The series is described as follows: In vitro metabolic stability in liver microsomes, human. It counts as in vitro ADME. As to conditions: both, 0.3 μM, pH 7.4. Here is the method:
(§2) The incubation concentration was 0.3 μM. […] The samples were frozen over night at −20° C.
On the technique in general: Microsomes from liver hold many membrane-bound enzymes, among them those of drug oxidation.

The test system of another series is rat microsomes. The series is described as follows: In vitro metabolic stability in liver microsomes, rat. To be noted: Wistar, male, calculated. The class given is in vitro ADME. Here is the method: as §2
The test system of a further series is monkey microsomes. The experiment in a line: In vitro metabolic stability in liver microsomes, monkey. It counts as in vitro ADME. To be noted: Cynomolgus, female, calculated. As for the experimental part:
as §2

Series [3] concerns the target human GPIIb/IIIa receptor (Homo sapiens (Human), UniProt P05106+P08514). The series is described as follows: Affinity assay: displacement of tritiated reference compound from immobilized purified GPIIb/IIIa. It counts as binding. Here is the method: Affinity assay: In the first step human GPIIb/IIIa purified from human platelets was immobilized on a 96-well solid plate. After 48 hours the plates were washed and the unspecific binding sites were blocked with Roti®-Block. 2. In the next step, the plates were simultaneously incubated with a tritium labeled known GPIIb/IIIa binder (^3H) mixed with increasing concentrations of the novel small molecule compounds (inhibitor, ^19F). The higher the affinity of the inhibitor, the lower the bound fraction of the tritiated known GPIIb/IIIa binder (^3H) was. The fraction of tritiated compound (^3H), which is not displaced by inhibitor, was measured in a microplate scintillation counter.
Purified human glycoprotein IIb/IIIa (20 mM Tris-HCl, 0.1 M NaCl, 0.1% Triton X-100, 1 mM CaCl2, 0.05% NaN3, 50% Glycerol, pH 7.4) was purchased from Enzyme Research Laboratories Inc. (South Bend, Ind.). The GPIIb/IIIa receptor was diluted in phosphate-buffered saline (Dulbecco's Phosphate Buffered Saline (D-PBS(+)) with calcium and magnesium, GIBCO®, Invitrogen) with 0.01% bovine serum albumin (albumin from bovine serum—lyophilized powder, ≧96%, Sigma).
The GPIIb/IIIa receptor was immobilized 48 hours at least (100 μL per well, 48 to maximum 96 hours) on a 96-well solid plate (Immuno Plate MaxiSorp™, Nunc, Roskilde, Denmark) at 277 K to 280 K and at a concentration of 0.1 μg per well to 1 μg per well. As negative control one row of the plate (n=8) was incubated just with 2% bovine serum albumin (200 μper well, albumin from bovine serum—lyophilized powder, […], Sigma, diluted in D-PBS(+)). After washing three times with the wash buffer (230 μL per well, Dulbecco's Phosphate Buffered Saline (D-PBS (−)) contains no calcium or magnesium, GIBCO®, Invitrogen) residual exposed plastic and unspecific binding sites were blocked by incubating the plate with a special blocking solution (200 μL per well, Roti®-Block, Carl Roth GmbH Co KG, Karlsruhe) containing 2% bovine serum albumin (Albumin from bovine serum—lyophilized powder, ≧96%, Sigma) 1 hour at room temperature.
After washing three times with the wash buffer 50 μL of tritiated reference compound (60 nM, ^3H-labeled compound) and 50 μL of novel compound (inhibitor, ^19F) were simultaneously added to each well and incubated for 1 hour at room temperature. Several concentrations of each novel inhibitor (0.1, 1, 2, 5, 10, 20 50, 100, 200, 500, 1000, 2000, 5000, 10000 and 20000 nM) were investigated. At each concentration of inhibitor a fourfold determination was performed.
The maximum value of tritiated reference compound was determined without addition of inhibitor (n=8). To exclude unspecific binding of ^3H-reference compound wells without glycoprotein receptors were used as negative controls (n=12, identically treated just without GP IIb/IIIa receptors).
After one hour the plate was washed three times with phosphate-buffered saline (200 μL per well, Dulbecco's Phosphate Buffered Saline (D-PBS(+)), GIBCO®, Invitrogen). Following 140 μL of liquid scintillation cocktail (MicroScint™ 40 aqueous, Perkin Elmer) was added to each well. After 15 min at room temperature the plates were measured at the microplate scintillation counter (TopCount NXT v2.13, Perkin Elmer, Packard Instrument Company).
In the first step human glycoprotein IIb/IIIa, which is purified from human platelets, was immobilized on a 96-well solid plate. After 48 hours at least the plates were washed and the unspecific binding sites were blocked with Roti®-Block. In the next step, the plates were simultaneously incubated with a tritium labeled reference compound and the novel small molecule compound (inhibitor). The higher the affinity of the inhibitor, the smaller is the bound fraction of reference compound. The fraction of tritiated reference compound, which is not displaced by inhibitor, was measured at a microplate scintillation counter.

Series [4] in a line: In vitro metabolic stability in liver microsomes, human. It counts as in vitro ADME. To be noted: pH 7.4. Here is the method:
as §2

A further series has as its system mouse microsomes. The experiment in a line: In vitro metabolic stability in liver microsomes, mouse. To be noted: NMRI, female, calculated. The class given is in vitro ADME. Here is the method: as §2
[5] abbreviates: 19F compounds vs 60 nM 3H-labeled reference compound, 1 hour at room temperature, read-out: IC50 human.
[6] abbreviates: values repeated beside the 18F-compound, read-out: IC50 human (corresponding 19F-compound, Table 2).

Each structure is given as a SMILES string. Read-outs that look alike come from different tables or passages of the source.

Sequence of human GPIIb/IIIa receptor (P08514 32-887): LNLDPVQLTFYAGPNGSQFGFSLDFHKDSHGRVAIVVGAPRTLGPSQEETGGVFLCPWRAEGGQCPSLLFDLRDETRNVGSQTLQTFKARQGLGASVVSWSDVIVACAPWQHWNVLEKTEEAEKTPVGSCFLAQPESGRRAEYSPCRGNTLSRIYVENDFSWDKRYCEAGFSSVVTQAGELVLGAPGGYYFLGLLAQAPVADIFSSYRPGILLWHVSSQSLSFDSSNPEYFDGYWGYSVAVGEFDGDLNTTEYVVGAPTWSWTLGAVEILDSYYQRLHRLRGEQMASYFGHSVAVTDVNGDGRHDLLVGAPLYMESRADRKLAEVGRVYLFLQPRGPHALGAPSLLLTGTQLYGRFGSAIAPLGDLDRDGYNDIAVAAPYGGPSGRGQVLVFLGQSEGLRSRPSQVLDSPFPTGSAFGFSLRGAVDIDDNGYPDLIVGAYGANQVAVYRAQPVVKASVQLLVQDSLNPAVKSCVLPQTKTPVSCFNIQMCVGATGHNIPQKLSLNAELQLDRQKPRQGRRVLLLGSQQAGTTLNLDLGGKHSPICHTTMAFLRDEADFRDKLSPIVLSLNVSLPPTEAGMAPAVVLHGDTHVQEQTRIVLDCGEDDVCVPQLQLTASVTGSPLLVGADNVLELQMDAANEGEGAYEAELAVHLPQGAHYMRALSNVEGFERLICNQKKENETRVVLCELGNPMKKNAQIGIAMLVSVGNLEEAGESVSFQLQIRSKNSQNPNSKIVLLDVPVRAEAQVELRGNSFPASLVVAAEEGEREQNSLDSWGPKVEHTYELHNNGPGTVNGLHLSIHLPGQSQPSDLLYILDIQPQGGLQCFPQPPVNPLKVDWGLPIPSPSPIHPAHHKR
Sequence of human GPIIb/IIIa receptor (P08514 891-1039 partner): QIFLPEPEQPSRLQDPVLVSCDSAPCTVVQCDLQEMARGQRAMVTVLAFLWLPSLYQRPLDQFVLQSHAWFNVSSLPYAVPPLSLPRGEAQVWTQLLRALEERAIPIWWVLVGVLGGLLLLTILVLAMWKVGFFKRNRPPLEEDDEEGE
Sequence of human GPIIb/IIIa receptor (P05106 27-788): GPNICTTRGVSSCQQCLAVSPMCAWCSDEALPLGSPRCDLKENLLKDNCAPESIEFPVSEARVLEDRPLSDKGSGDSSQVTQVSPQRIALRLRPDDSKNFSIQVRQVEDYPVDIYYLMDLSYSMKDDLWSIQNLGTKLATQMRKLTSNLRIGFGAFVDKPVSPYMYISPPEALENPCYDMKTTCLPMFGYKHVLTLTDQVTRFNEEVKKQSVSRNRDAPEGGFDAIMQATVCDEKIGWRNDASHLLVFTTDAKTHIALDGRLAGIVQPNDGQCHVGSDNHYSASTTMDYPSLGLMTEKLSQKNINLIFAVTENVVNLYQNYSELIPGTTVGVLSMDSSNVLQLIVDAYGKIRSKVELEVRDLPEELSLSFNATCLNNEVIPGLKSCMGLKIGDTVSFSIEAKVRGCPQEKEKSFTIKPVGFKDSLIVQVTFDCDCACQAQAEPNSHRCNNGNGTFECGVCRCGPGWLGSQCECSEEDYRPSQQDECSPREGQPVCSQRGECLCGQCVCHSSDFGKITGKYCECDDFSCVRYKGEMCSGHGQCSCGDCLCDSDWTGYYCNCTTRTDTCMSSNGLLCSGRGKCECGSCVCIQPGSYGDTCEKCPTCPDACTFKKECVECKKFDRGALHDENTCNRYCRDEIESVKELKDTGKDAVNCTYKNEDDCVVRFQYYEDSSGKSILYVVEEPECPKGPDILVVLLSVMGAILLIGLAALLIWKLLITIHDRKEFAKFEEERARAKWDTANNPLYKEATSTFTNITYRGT

Consider `O=C(O)C[C@H](NC(=O)[C@@H]1CCCN(C(=O)CCC2CCNCC2)C1)c1cccc(OCCF)c1` [Example 1, (3S)-3-[3-(2-Fluoroethoxy)phenyl]-3-[({(3R)-1-[3-(piperidin-4-yl)propanoyl]piperidin-3-yl}carbonyl)amino]propanoic acid], for which the fraction unbound at 0.3 μM in series [1] is 0.91; in series [2] it was 0.99. Further, the values for the fraction unbound at 3 μM in series [1] and in series [2] were 0.9 and 0.93, respectively. For the same molecule, the CLblood in the series on Human liver microsomes, with rat microsomes and in the series on monkey microsomes was 2.4 mL/day/kg each time. The IC50 in series [3] (setting [5]) and in series [3] (setting [6]) was 101 nM throughout.
Turning to `O=C(O)C[C@H](NC(=O)[C@@H]1CCCN(C(=O)CCC2CCNCC2)C1)c1cncc(OCCF)c1` [Example 3, (3S)-3-[5-(2-Fluoroethoxy)pyridin-3-yl]-3-[({(3R)-1-[3-(piperidin-4-yl)propanoyl]-piperidin-3-yl}carbonyl)amino]propanoic acid], the fraction unbound at 0.3 μM was found to be 0.96 in series [1] and 1 in series [2]. Besides, the fraction unbound at 3 μM in series [1] and in series [2] was 1 in each case. Moreover, the CLblood with Human liver microsomes, in the series with rat microsomes, in the series on monkey microsomes and with mouse microsomes was 2.4 mL/day/kg each time. In series [4], this molecule gave a recovery at 60 min, 0.3 μM of about 100%. Also, the IC50 in series [3] (setting [5]) and in series [3] (setting [6]) was 20 nM throughout.

One may read the IC50 as the concentration that gives 50% inhibition.

The record behind these values is patent publication US9345793B2, “Compounds for binding to the platelet specific glycoprotein IIB/IIIA and their use for imaging of thrombi” (PIRAMAL IMAGING SA, priority 2011, dated 2016).
